# Assays:
# Format in all cases: cell-based, mouse
# SMN2 [1] = assay: SMN2 splicing pattern, semi-quantitative RT-PCR in SMA-like MEFs; parameters: key to SMN2 splicing pattern MEF: −: no effect; +: effective; +++: most effective; conditions: SMA-like MEFs; for SMN2 splicing pattern MEF: TSA 10 nM, sodium butyrate 25 mM, aclarubicin 80 nM, sodium vanadate 50 μM; for influence on SMN2 expression: time-course RT-PCR
# Stat6 (pT641) = assay: Signaling pathway screen in SMN2-NSC34 cells
# Stat3 (pY705) = assay: Signaling pathway screen in SMN2-NSC34 cells
# Stat1 (pY701) = assay: Signaling pathway screen in SMN2-NSC34 cells
# Stat5 (pT694) = assay: Signaling pathway screen in SMN2-NSC34 cells; parameters: Stat5 (pT694) cellular response: key: −: decreasing; +/−: no activation; +: slight activation; ++: minor activation; +++: significant activation; conditions: SMN2-NSC34 cells; for phosphorylation level of Stat5 increased compared to control cells: treatment for 4 hours, α-tubulin internal control
# Experimental: (§1) Western blot analysis. Cells treated by dsRNA, compounds or Stat5A1*6 transfected were detached by scraping, pelletting and rinsing in PBS. Cell pellets were collected after centrifugation and lysed on ice in modified RIPA buffer (50 mM Tris-HCl (pH7.4), 1% NP-40, 0.25% deoxycholic acid, 0.15M NaCl, 1 mM EDTA, 1 mM PMSF/NaF/sodium orthovanadate, and protease inhibitors cocktail (Roche, Mannheim, Germany) for 30 min. After centrifugation, the supernatants were collected and kept frozen at −20° C. Protein concentrations were determined by Bio-Rad protein assay method. For Western blot analysis, protein samples were boiled for 5 min and electrophoresed on 8% or 10% SDS-polyacrylamide gel in a 1× running buffer (25 mM Tris, 192 mM glycine, 3.4 mM SDS, pH 8.3) and subsequently electrotransferred to Polyvinylidene Fluoride tansfer membrane (Pall, Pensacola, Fla.) using a TE 22 mini-tank transfer unit (Amersham Biosciences, San Francisco, Calif.) at 35 volts overnight in transfer buffer (25 mM Tris, 192 mM glycine, 20% methanol, pH8.3). The blotting membranes were incubated in blocking solution (PBS, 5% non-fat milk, 0.2% Tween-20) for 1 hour at room temperature, and then incubated in the same solution with the primary antibody (human-specific SMN/1:1000; SMN/1:5000, Transduction Laboratories, Lexington, Ky.; phospho-Stat5a/b/1:1000, Cell signaling, Beverly, Mass.; phospho-Jak2/1:1000, Upstate, Lake Placid, N.Y.; Flag BioM2/1:1000, Sigma, St. Louis, MO; c-myc/1:200, Santa Cruz Biotech, Santa Cruz, Calif.; α-Tubilin/1:10000, Upstate, Lake Placid, N.Y., MO), overnight at 4° C. The membranes were washed and incubated in the blocking solution with the proper HRP-conjugated secondary antibody at 1/5000 dilution (Chemicon, Temecula, Calif.) for 1 hour at room temperature. After washing three times in PBS containing 0.1% Tween-20, the signals were visualized by autoradiography (Fuji Medical X-ray film, Fuji Photos, Tokyo) using enhanced chemi-luminescence (ECL detection system; Perkin-Elmer, Boston, Calif.). Western blot quantification was performed by scanning the auto-radiographs with a computerized densitometer. Signal intensities were determined by densitometry analysis (Fuji film LAS-1000 plus pictography) using the program Phoreticx 1D (Phoreticx International).
# (§2) Therefore, TSA, aclarubicin and sodium vanadate all induce the activation of Stat5A in motor neuron-like NSC34 cells.
# P38 (pT180/pY182) = assay: Signaling pathway screen in SMN2-NSC34 cells
# Jak2 (pY1007/pY1008) = assay: Signaling pathway screen in SMN2-NSC34 cells; conditions: for Jak2 activation: 2-4 hours after treatment; for Jak2 (pY1007/pY1008) cellular response: SMN2-NSC34 cells; for Jak2 (pY1007/pY1008) cellular response: key: −: decreasing; +/−: no activation; +: slight activation; ++: minor activation; +++: significant activation
# Experimental: as §1, §2
# ERK1/2 (pT202/pY204) = assay: Signaling pathway screen in SMN2-NSC34 cells
# Stat2 (pY705) = assay: Signaling pathway screen in SMN2-NSC34 cells
# SMN2 [2] = assay: SMN2 splicing pattern, semi-quantitative RT-PCR in SMN2-NSC34 cells; parameters: key to SMN2 splicing pattern SMN2-NSC34: −: no effect; +: effective; +++: most effective; conditions: SMN2-NSC34 cells; TSA 10 nM, sodium butyrate 25 mM, aclarubicin 80 nM, sodium vanadate 100 μM
# Experimental: Cell culture and chemical/dsRNA treatment. Mouse embryonic fibroblasts (MEFs) were prepared using the standard protocol. Briefly, E13.5 day embryo was isolated; the uterine deciduas were cut away, and the yolk sac was removed. The embryo was then scraped out to remove non-fibroblastic tissue, and the head severed for genotyping. Embryo body was minced in 0.25% Trypsin-EDTA and incubated for 30 min. It was then added to MEF culture media, and the cell suspension spun for ˜5 min at 1,000 rpm in the tissue culture centrifuge to pellet cells. The supernatant was aspirated off and the cell pellet immediately resuspended in 10 mL of fresh MEF culture media. The MEFs were allowed to reach confluency so the cells could be passaged for further experiments. Cultured MEFs and SMN2-NSC34 cells were maintained in Dulbecco's modified Eagle medium (Invitrogen, Carlsbad, Calif.) containing 10% heat-inactivated fetal bovine serum (Hyclone, Logan, Utah) and 1% penicillin-streptomycin (Invitrogen, Carlsbad, Calif.) and were incubated at 37° C. in a 5% CO2 humidified atmosphere. The cells were plated the day preceding treatment with each chemical and harvested at the indicated time.
# Semi-quantitative PCR/RT-PCR. The genomic DNA from E13.5 SMA embryos was extracted. A specific primer pair, SMN forward 5′-[…]-3′ (SEQ ID NO:21) and SMN backward 5′-[…]-3′ (SEQ ID NO:22), was designed for recognition of both murine Smn and human SMN2. The PCR program initially started with a 95° C. denaturation for 10 min, followed by 19 to 26 cycles of 95° C./1 min. 53° C./1.5 min, 72° C./2 min to assay the linear range for both Smn and SMN2. For RT-PCR assay, total RNA was extracted at indicated time points from SMN2-NSC34 cells with sodium vanadate, TSA, and aclarubicin treatment or with an increasing amount of Stat5A1*6 transfection by using the TRizol reagent (Invitrogen, Carlsbad, Calif.). To amplify the exon7 inclusion/exclusion form of SMN2 transcripts, RT-PCR were performed using a primer set P5P6 as previously described (15). The transcript from the mouse glyceraldehyde-3-phosphate dehydrogenase (Gapdh) gene or the β-Actin gene was amplified using the primer pairs: Gapdh forward: 5′-[…]-3′ (SEQ ID NO:23), and backward: 5′-[…]-3′ (SEQ ID NO:24) (56° C.), and β-Actin forward: 5′-[…]-3′ (SEQ ID NO:25), and backward 5′-[…]-3′ (SEQ ID NO:26) (59° C.), and this allowed control of equal amounts of template. […] The gel images were digitally captured with a CCD camera and analyzed with the Alphalmager™. […] Relative total SMN2 transcript levels were determined from Stat5A1*6 transfected SMN2-NSC34 cells in a minimum of three independent experiments. Differences in ratios were determined to be significant by an independent two-tailed t-test, with *, P<0.05, **, P<0.005, ***, p<0.001.
# JNK (pT183/pY185) = assay: Signaling pathway screen in SMN2-NSC34 cells
smiles,measurement,setting,value
CC[C@@]1(O)C[C@H](O[C@H]2C[C@H](N(C)C)[C@H](O[C@H]3C[C@H](O)[C@H](O[C@H]4CCC(=O)[C@H](C)O4)[C@H](C)O3)[C@H](C)O2)c2c(cc3c(c2O)C(=O)c2c(O)cccc2C3=O)[C@H]1C(=O)OC [Aclarubicin],SMN2 splicing pattern MEF,SMN2 [1],+
same,influence on SMN2 expression,SMN2 [1],found to influence SMN2 expression
same,Stat6 (pT641) cellular response,Stat6 (pT641); 4 hrs,+/−
same,Stat6 (pT641) cellular response,Stat6 (pT641); 8 hrs,−
same,Stat3 (pY705) cellular response,Stat3 (pY705); 4 hrs,+
same,Stat3 (pY705) cellular response,Stat3 (pY705); 8 hrs,++
same,Stat1 (pY701) cellular response,Stat1 (pY701); 4 hrs,+/−
same,Stat1 (pY701) cellular response,Stat1 (pY701); 8 hrs,+/−
same,Stat5 (pT694) cellular response,Stat5 (pT694); 4 hrs,++
same,Stat5 phosphorylation status at 8 hours,Stat5 (pT694),remained activated
same,Stat5 (pT694) cellular response,Stat5 (pT694); 8 hrs,+++
same,phosphorylation level of Stat5 increased compared to control cells,Stat5 (pT694),about 2 fold
same,P38 (pT180/pY182) cellular response,P38 (pT180/pY182); 4 hrs,+/−
same,P38 (pT180/pY182) cellular response,P38 (pT180/pY182); 8 hrs,+/−
same,Jak2 activation,Jak2 (pY1007/pY1008),found activated
same,Jak2 (pY1007/pY1008) cellular response,Jak2 (pY1007/pY1008); 4 hrs,+
same,Jak2 (pY1007/pY1008) cellular response,Jak2 (pY1007/pY1008); 8 hrs,+/−
same,ERK1/2 (pT202/pY204) cellular response,ERK1/2 (pT202/pY204); 4 hrs,+/−
same,ERK1/2 (pT202/pY204) cellular response,ERK1/2 (pT202/pY204); 8 hrs,+/−
same,Stat2 (pY705) cellular response,Stat2 (pY705); 4 hrs,+
same,Stat2 (pY705) cellular response,Stat2 (pY705); 8 hrs,+/−
CC1=C(/C=C/C(C)=C/C=C/C(C)=C/C(=O)O)C(C)(C)CCC1 [All-trans retinoic acid],SMN2 splicing pattern MEF,SMN2 [1],−
NC(=O)NO [Hydroxyurea],SMN2 splicing pattern MEF,SMN2 [1],−
CC(=O)N[C@@H](CS)C(=O)O [N-Acetyl-L-cysteine],SMN2 splicing pattern MEF,SMN2 [1],−
CCCCCCCCCCCCCC(=O)O[C@@H]1[C@@H](C)[C@@]2(O)[C@@H](C=C(CO)C[C@]3(O)C(=O)C(C)=C[C@@H]23)[C@@H]2C(C)(C)[C@]12OC(C)=O [Phorbol-12-myristate-13-acetate],SMN2 splicing pattern MEF,SMN2 [1],−
CCCC(=O)[O-].[Na+] [Sodium butyrate],SMN2 splicing pattern MEF,SMN2 [1],+
same,SMN2 splicing pattern SMN2-NSC34,SMN2 [2],+
"CC(/C=C/C(=O)NO)=C\[C@@H](C)C(=O)c1ccc(N(C)C)cc1 [Trichostatin A (TSA), Trichostatin A]",SMN2 splicing pattern MEF,SMN2 [1],+
same,influence on SMN2 expression,SMN2 [1],found to influence SMN2 expression
same,Stat6 (pT641) cellular response,Stat6 (pT641); 4 hrs,+/−
same,Stat6 (pT641) cellular response,Stat6 (pT641); 8 hrs,−
same,Stat3 (pY705) cellular response,Stat3 (pY705); 4 hrs,+
same,Stat3 (pY705) cellular response,Stat3 (pY705); 8 hrs,++
same,Stat1 (pY701) cellular response,Stat1 (pY701); 4 hrs,−
same,Stat1 (pY701) cellular response,Stat1 (pY701); 8 hrs,−
same,Stat5 (pT694) cellular response,Stat5 (pT694); 4 hrs,++
same,Stat5 phosphorylation status at 8 hours,Stat5 (pT694),remained activated
same,Stat5 (pT694) cellular response,Stat5 (pT694); 8 hrs,+++
same,phosphorylation level of Stat5 increased compared to control cells,Stat5 (pT694),about 2 fold
same,P38 (pT180/pY182) cellular response,P38 (pT180/pY182); 4 hrs,+/−
same,P38 (pT180/pY182) cellular response,P38 (pT180/pY182); 8 hrs,+
same,Jak2 activation,Jak2 (pY1007/pY1008),found activated
same,Jak2 (pY1007/pY1008) cellular response,Jak2 (pY1007/pY1008); 4 hrs,+
same,Jak2 (pY1007/pY1008) cellular response,Jak2 (pY1007/pY1008); 8 hrs,+/−
same,ERK1/2 (pT202/pY204) cellular response,ERK1/2 (pT202/pY204); 4 hrs,+
same,ERK1/2 (pT202/pY204) cellular response,ERK1/2 (pT202/pY204); 8 hrs,+
same,JNK (pT183/pY185) cellular response,JNK (pT183/pY185); 4 hrs,+/−
same,JNK (pT183/pY185) cellular response,JNK (pT183/pY185); 8 hrs,+
same,Stat2 (pY705) cellular response,Stat2 (pY705); 4 hrs,+/−
same,Stat2 (pY705) cellular response,Stat2 (pY705); 8 hrs,+/−
